Source: ChEMBL document CHEMBL4000175, “Biology-oriented drug synthesis (BIODS): In vitro β-glucuronidase inhibitory and in silico studies on 2-(2-methyl-5-nitro-1H-imidazol-1-yl)ethyl aryl carboxylate derivatives” (Eur J Med Chem, 2017)

These compounds were tested against T1, Beta-glucuronidase (Bos taurus, UniProt A3KMY8) (assay: Inhibition of bovine liver beta glucuronidase using p-nitrophenyl-beta-D-glucuronide as substrate preincubated for 30 mins followed by substrate addition by spectrophotometric method). Details: not given; call rule not given here.
T1 sequence (A3KMY8 whole entry): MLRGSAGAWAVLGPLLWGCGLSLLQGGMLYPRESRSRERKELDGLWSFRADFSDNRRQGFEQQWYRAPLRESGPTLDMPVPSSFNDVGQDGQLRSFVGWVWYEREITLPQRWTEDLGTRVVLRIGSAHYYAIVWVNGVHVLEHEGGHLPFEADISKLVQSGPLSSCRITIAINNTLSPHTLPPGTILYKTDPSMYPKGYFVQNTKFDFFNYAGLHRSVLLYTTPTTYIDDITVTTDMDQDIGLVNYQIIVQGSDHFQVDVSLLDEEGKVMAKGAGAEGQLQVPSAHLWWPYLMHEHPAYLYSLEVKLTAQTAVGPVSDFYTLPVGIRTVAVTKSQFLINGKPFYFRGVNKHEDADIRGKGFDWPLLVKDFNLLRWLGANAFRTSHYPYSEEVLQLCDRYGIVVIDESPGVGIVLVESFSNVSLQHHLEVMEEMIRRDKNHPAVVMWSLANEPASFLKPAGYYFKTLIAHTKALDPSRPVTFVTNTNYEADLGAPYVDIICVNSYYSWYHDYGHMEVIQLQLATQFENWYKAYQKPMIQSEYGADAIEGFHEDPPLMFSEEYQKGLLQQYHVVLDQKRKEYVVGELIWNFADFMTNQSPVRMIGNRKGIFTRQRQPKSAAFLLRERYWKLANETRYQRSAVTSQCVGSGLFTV

IC50	SMILES
Not Active	Cc1cccc(C(=O)OCCn2c([N+](=O)[O-])cnc2C)c1
Not Active	Cc1ncc([N+](=O)[O-])n1CCOC(=O)c1cccc2ccccc12
Not Active	CCCCOc1ccc(C(=O)OCCn2c([N+](=O)[O-])cnc2C)cc1
Not Active	Cc1ncc([N+](=O)[O-])n1CCOC(=O)c1ccc2ccccc2c1

Same assay, conditions: read-out: IC50

SMILES	IC50
Cc1ncc([N+](=O)[O-])n1CCOC(=O)c1ccc(Br)cc1	42.6 µM
Cc1ncc([N+](=O)[O-])n1CCOC(=O)c1ccccc1Br	48.5 µM
COc1ccc(C(=O)OCCn2c([N+](=O)[O-])cnc2C)cc1	60.2 µM
Cc1ncc([N+](=O)[O-])n1CCOC(=O)c1cccc([N+](=O)[O-])c1	27.6 µM
Cc1ncc([N+](=O)[O-])n1CCOC(=O)c1cccnc1	32.6 µM
COc1ccc(/C=C/C(=O)OCCn2c([N+](=O)[O-])cnc2C)cc1	31.1 µM
Cc1ccccc1C(=O)OCCn1c([N+](=O)[O-])cnc1C	44.2 µM
COc1cc(OC)cc(C(=O)OCCn2c([N+](=O)[O-])cnc2C)c1	60.3 µM
Cc1ccc(C(=O)OCCn2c([N+](=O)[O-])cnc2C)cc1	35.5 µM

The remaining lines, values ahead:

IC50	SMILES
2.1 µM	Cc1ncc([N+](=O)[O-])n1CCOC(=O)c1cc2ccccc2[nH]1
6.2 µM	Cc1ncc([N+](=O)[O-])n1CCOC(=O)c1cc(Cl)ccc1Cl
6.3 µM	Cc1ncc([N+](=O)[O-])n1CCOC(=O)c1ccc(F)cc1Br
16.3 µM	Cc1ncc([N+](=O)[O-])n1CCOC(=O)c1cccc(Cl)c1
12.4 µM	Cc1ncc([N+](=O)[O-])n1CCOC(=O)c1ccc(F)cc1
8.4 µM	Cc1ncc([N+](=O)[O-])n1CCOC(=O)c1ccc2ncsc2c1
3.6 µM	Cc1ncc([N+](=O)[O-])n1CCOC(=O)c1ccc(Cl)c(Cl)c1
24.2 µM	Cc1cc(C)cc(C(=O)OCCn2c([N+](=O)[O-])cnc2C)c1
8.9 µM	Cc1ncc([N+](=O)[O-])n1CCOC(=O)c1ccc([N+](=O)[O-])cc1
19.3 µM	Cc1ncc([N+](=O)[O-])n1CCOC(=O)c1ccccc1Cl
7.3 µM	Cc1cc(C(=O)OCCn2c([N+](=O)[O-])cnc2C)ccc1[N+](=O)[O-]
8.1 µM	Cc1ncc([N+](=O)[O-])n1CCOC(=O)c1cccc(F)c1
6.33 µM	Clc1ccc(-c2nc3ccccc3[nH]2)cc1Cl

These compounds were tested against T2, Beta-glucuronidase (Bos taurus) (UniProt A3KMY8) (assay: Potency index, ratio of D-saccharic acid 1,4-lactone IC50 to compound IC50 for bovine liver beta glucuronidase). Details: not given.
T2 sequence (whole entry): T1 sequence (A3KMY8 whole entry)

Ratio IC50	SMILES
24	Cc1ncc([N+](=O)[O-])n1CCOC(=O)c1cc2ccccc2[nH]1
6	Cc1ncc([N+](=O)[O-])n1CCOC(=O)c1ccc2ncsc2c1
15	Cc1ncc([N+](=O)[O-])n1CCOC(=O)c1ccc(Cl)c(Cl)c1
7	Cc1cc(C(=O)OCCn2c([N+](=O)[O-])cnc2C)ccc1[N+](=O)[O-]
